Experimental data published in ChEMBL document CHEMBL5614426 (J Med Chem, 2024).

What was measured:
[1] = target: T1, Histone-lysine N-methyltransferase NSD2 (Homo sapiens, UniProt O96028); experiment: Inhibition of recombinant human NSD2 (941 to 1240 residues) using unmethylated histone H3 as substrate incubated for 40 mins in the presence of SAM and nucleosomes by AlphaLISA method
T1 sequence (O96028 whole entry): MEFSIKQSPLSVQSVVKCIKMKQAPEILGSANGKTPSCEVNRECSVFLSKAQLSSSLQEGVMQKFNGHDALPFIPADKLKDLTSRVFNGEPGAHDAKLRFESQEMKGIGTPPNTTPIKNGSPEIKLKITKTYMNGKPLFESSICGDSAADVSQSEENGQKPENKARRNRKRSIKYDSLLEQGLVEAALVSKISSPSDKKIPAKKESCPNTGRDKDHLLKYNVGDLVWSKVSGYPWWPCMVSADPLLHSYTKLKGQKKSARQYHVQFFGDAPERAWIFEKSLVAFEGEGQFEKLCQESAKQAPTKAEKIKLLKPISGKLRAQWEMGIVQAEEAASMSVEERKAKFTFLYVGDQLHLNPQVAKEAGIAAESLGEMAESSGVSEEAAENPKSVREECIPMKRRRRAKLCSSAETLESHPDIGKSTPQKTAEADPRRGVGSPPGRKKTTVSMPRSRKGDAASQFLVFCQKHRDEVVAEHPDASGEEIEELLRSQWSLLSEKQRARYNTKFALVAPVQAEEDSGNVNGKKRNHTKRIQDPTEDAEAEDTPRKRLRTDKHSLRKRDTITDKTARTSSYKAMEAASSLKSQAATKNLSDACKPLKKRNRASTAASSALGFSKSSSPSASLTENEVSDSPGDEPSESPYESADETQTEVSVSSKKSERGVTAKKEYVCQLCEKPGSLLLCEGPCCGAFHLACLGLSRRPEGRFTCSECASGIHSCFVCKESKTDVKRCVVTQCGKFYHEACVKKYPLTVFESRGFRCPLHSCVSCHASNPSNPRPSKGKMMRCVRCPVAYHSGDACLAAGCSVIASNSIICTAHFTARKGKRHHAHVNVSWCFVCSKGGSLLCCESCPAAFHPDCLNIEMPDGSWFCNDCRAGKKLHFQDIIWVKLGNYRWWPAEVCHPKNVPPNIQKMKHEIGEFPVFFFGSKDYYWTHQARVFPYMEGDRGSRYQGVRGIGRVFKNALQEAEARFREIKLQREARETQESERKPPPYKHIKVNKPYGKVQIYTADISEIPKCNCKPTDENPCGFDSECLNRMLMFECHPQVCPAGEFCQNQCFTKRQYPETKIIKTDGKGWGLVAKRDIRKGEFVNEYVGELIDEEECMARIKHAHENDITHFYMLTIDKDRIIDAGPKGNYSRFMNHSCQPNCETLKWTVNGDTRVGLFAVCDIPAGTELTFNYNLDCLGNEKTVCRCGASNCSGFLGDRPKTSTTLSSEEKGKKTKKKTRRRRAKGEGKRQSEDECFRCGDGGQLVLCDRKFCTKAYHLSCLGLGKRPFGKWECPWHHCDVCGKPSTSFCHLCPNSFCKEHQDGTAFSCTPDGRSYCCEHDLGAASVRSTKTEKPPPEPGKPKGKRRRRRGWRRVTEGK

[2] = target: T2, Histone-lysine N-methyltransferase EHMT2 (Homo sapiens) (UniProt Q96KQ7); experiment: Inhibition of G9a (unknown origin) at 10 uM by AlphaLISA assay relative to control
T2 sequence (whole entry): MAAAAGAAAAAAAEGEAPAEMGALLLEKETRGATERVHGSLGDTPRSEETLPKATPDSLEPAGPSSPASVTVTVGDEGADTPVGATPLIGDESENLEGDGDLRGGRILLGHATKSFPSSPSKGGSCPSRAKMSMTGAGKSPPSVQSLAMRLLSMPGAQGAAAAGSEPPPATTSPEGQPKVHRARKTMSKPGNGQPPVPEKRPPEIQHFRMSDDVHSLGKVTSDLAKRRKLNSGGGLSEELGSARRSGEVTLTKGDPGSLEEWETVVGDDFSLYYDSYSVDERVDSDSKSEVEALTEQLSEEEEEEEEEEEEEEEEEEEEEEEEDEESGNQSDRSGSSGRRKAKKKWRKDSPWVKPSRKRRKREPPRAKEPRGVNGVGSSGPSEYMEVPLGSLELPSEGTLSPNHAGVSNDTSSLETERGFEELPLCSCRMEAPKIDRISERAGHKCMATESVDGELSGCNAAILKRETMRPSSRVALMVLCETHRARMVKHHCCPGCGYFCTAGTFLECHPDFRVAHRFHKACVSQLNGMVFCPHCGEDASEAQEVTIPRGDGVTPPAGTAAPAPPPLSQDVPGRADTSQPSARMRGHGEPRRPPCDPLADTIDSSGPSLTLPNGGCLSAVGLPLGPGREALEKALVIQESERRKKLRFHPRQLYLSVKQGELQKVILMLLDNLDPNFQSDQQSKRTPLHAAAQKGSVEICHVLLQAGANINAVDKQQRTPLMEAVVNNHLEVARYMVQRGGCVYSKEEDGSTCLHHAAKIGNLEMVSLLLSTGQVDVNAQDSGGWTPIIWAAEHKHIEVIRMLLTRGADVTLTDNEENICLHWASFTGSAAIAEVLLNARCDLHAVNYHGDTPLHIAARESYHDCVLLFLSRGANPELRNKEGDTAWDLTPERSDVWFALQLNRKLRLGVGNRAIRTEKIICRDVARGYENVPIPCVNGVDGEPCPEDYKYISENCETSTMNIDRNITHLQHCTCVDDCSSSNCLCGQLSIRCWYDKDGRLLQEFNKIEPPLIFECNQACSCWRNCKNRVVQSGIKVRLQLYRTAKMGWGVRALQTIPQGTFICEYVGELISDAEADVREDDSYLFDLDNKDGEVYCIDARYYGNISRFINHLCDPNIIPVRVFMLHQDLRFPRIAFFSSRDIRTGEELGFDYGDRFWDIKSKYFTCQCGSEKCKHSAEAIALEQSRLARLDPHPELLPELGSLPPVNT

[3] = target: T2, Histone-lysine N-methyltransferase EHMT2 (Homo sapiens); experiment: Inhibition of G9a (unknown origin) at 1 uM by AlphaLISA assay relative to control

Row | Compound | IC50 [1] | inhibition [2] | inhibition [3]
1 | COc1cc2c(NC3CCN(C(C)C)CC3)nc(C#N)nc2cc1OCCN1CCOCC1 | 44 nM | – | –
2 | COc1cc2nc(C#N)nc(NCC3CCN(C)CC3)c2cc1OC | 2430 nM | – | –
3 | COc1cc2c(NC3CCN(C(C)C)CC3)nc(C#N)nc2cc1OCCCN1CCC(F)(F)C1 | 38 nM | – | –
4 | COc1cc2c(NC3CCN(C(C)C)CC3)nc(C#N)nc2cc1O | 60 nM | – | –
5 | COc1cc2nc(C#N)nc(NC3CCN(C4CCCCC4)CC3)c2cc1OC | 1200 nM | – | –
6 | COc1cc2nc(C#N)nc(Nc3ccc(N4CCN(C)CC4)cc3)c2cc1OC | 3150 nM | – | –
7 | CC(C)N1CCC(Nc2nc(C#N)nc3ccccc23)CC1 | 377 nM | – | –
8 | COc1cc2nc(C#N)nc(N(C)C3CCN(C)CC3)c2cc1OC | 3760 nM | – | –
9 | COc1ccc2nc(C#N)nc(NC3CCN(C(C)C)CC3)c2c1 | 85 nM | – | –
10 | COc1cc2c(NC3CCN(C(C)C)CC3)nc(C#N)nc2cc1OCCCN1CCC(F)(F)CC1 | 32 nM | – | –
11 | CC#CC(=O)NC12CC(NC3=C(Cl)C(=O)c4ncccc4C3=O)(C1)C2 | 243 nM | – | –
12 | COc1cc2nc(C#N)nc(NC3CCN(C(=O)OC(C)(C)C)CC3)c2cc1OC | 3330 nM | – | –
13 | COc1cc2nc(C#N)nc(OC3CCN(C)CC3)c2cc1OC | 2520 nM | – | –
14 | COc1cc2nc(C#N)nc(N3CCN(C)CC3)c2cc1OC | 4300 nM | – | –
15 | COc1ccc2c(NC3CCN(C(C)C)CC3)nc(C#N)nc2c1 | 271 nM | – | –

Second part, the compound after the results:

Row | IC50 [1] | inhibition [2] | inhibition [3] | Compound
16 | 2780 nM | – | – | COc1cc2nc(C#N)nc(NC3CCN(C(C)=O)CC3)c2cc1OC
17 | 1730 nM | 98.8% | 98.3% | COc1cc2nc(N3CCCN(C)CC3)nc(NC3CCN(Cc4ccccc4)CC3)c2cc1OC
18 | > 5000 nM | 98.5% | 98.7% | COc1cc2nc(N3CCOCC3)nc(NC3CCN(Cc4ccccc4)CC3)c2cc1OC
19 | 1510 nM | 99.1% | 99.6% | COc1cc2nc(N(C)C)nc(NC3CCN(Cc4ccccc4)CC3)c2cc1OC
20 | 1410 nM | 95.4% | 34.8% | COc1cc2nc(CN)nc(NC3CCN(Cc4ccccc4)CC3)c2cc1OC
21 | – | 5.6% | 2.8% | COc1cc2nc(C#N)nc(NC3CCN(Cc4ccccc4)CC3)c2cc1OC
22 | 1410 nM | – | – | COc1cc2nc(C#N)nc(NC3CCNCC3)c2cc1OC
23 | > 5000 nM | – | – | COc1cc2nc(C#N)nc(NC3CCCC3)c2cc1OC
24 | 204 nM | – | – | COc1cc2nc(C#N)nc(NC3CCN(C)CC3)c2cc1OC
25 | 4900 nM | – | – | COc1cc2nc(C#N)nc(NC3CCOCC3)c2cc1OC
26 | 45 nM | – | – | COc1cc2nc(C#N)nc(NC3CCN(C4CC4)CC3)c2cc1OC
27 | 1550 nM | 99.6% | 99.1% | COc1cc2nc(N)nc(NC3CCN(Cc4ccccc4)CC3)c2cc1OC
28 | 4570 nM | – | – | COc1cc2nc(C#N)nc(NC3CCCCC3)c2cc1OC
29 | 1510 nM | – | – | CCN1CCC(Nc2nc(C#N)nc3cc(OC)c(OC)cc23)CC1
30 | 1450 nM | 82.4% | 27.4% | COc1cc2ncnc(NC3CCN(Cc4ccccc4)CC3)c2cc1OC
31 | 29 nM | – | – | COCCOc1cc2nc(C#N)nc(NC3CCN(C(C)C)CC3)c2cc1OC
32 | 49 nM | – | – | COc1cc2c(NC3CCN(C(C)C)CC3)nc(C#N)nc2cc1OCc1ccccc1
33 | > 5000 nM | 99.2% | 98% | COc1cc2nc(N3CCCCC3)nc(NC3CCN(Cc4ccccc4)CC3)c2cc1OC
34 | > 5000 nM | 99.2% | 29.9% | COc1cc2nc(-c3ccccc3)nc(NC3CCN(Cc4ccccc4)CC3)c2cc1OC
35 | 1510 nM | 99.4% | 99.5% | CNc1nc(NC2CCN(Cc3ccccc3)CC2)c2cc(OC)c(OC)cc2n1
36 | 569 nM | – | – | CCCN1CCC(Nc2nc(C#N)nc3cc(OC)c(OC)cc23)CC1
